According to PubChem BioAssay AID179 (DTP/NCI, 2004):
Where “and” joins values, the source holds several entries; their conditions need not be identical. Equal values may be shown once. Calls of active or inactive are those of the source.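 The calls were made as follows: active = compounds giving half or more protection of infected cells from virus-caused growth loss, again on retest; inactive = the rest.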

Test system: CEM cells HIV-1 protection, formazan growth assay
Test: NCI AIDS Antiviral Assay
Details: for IC50: measured here: growth of uninfected CEM cells
Procedure, shortened: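 Protection of CEM cells against HIV-1 was scored from cell growth (soluble formazan) across five concentrations, with parallel uninfected cells. Lack of protection may reflect toxicity.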

Row | Compound | outcome | EC50 [µM] | IC50
1 | Cc1[nH]c2ccccc2c1C1Cc2ccccc2N1 (centres undefined) | inactive |  | 
2 | Clc1ccc(-c2cc3nc4ccccc4nc3o2)cc1 |  | > 100 | > 100 µM
3 | COc1ccc2c(c1)OC[C@@H]1c3cc4c(cc3O[C@H]21)OCO4 |  | > 63.1 | > 63.1 µM
4 | Clc1ccc2c(c1)[nH]c1c2nc2ccccn21 |  | > 30.2 | 29.5 µM and > 25.7 µM
5 | Cc1c(C)c(CC(C)(COS(C)(=O)=O)COS(C)(=O)=O)c(C)c(C)c1CC(C)(COS(C)(=O)=O)COS(C)(=O)=O |  | > 20.9 | > 20.9 µM
6 | CC1CCC2N(C1)CC1C3(O)CC45OC6(O)C(O)CCC4(C)C6CCC5C3(O)CC(O)C1(O)C2(C)O (centres undefined) |  | > 490 | > 490 µM
7 | O=C(CCc1ccc(O)c(O)c1)NCCc1ccc(O)c(O)c1 |  | > 200 | 9.55 µM
8 | CC(NCCCNC(C)C(=O)O)C(=O)O (centres undefined) |  | > 661 | > 661 µM
9 | NC1=Nc2ccccc2N(O)N1 |  | > 158 | > 158 µM
10 | COc1ccc(Nc2cc(N)nc(N)n2)c(=S)[nH]1 |  | > 676 | 57.5 µM
11 | C=CC(CCCCCCCC(=O)O)S(=O)(=O)O (centres undefined) |  | > 200 | > 200 µM
12 | O=NN(CC1(O)OCC(O)C(O)C1O)C(Cc1c[nH]c2ccccc12)C(=O)O (centres undefined) | inactive |  | 
13 | NP(N)(=O)NC(=O)c1ccc(F)cc1 |  | > 200 | > 200 µM
14 | COc1cc(C(=O)Nc2cccc3ccccc23)c(Br)c(OC)c1OC |  | > 45.7 | > 45.7 µM
15 | CC(C)(C)[Si](C)(C)OCC1OC(n2ccc(=O)[nH]c2=O)C(O[Si](C)(C)C(C)(C)C)/C1=C/CO (centres undefined) |  | > 200 | 8.32 µM
16 | NC(Cc1ccc(N(CCCl)CCCl)cc1)C(=O)O (centres undefined) |  | > 200 | 12 µM
17 | C(=N\NC1=NCCCCN1)/c1ccc2ccccc2c1 |  | > 200 | 33.1 µM
18 | O=C(O)CSc1cc(-c2ccc(Cl)cc2)s[s+]1 |  | > 200 | > 200 µM
19 | Cc1[nH]n(C(=O)c2ccccc2O)c(=O)c1/C=C1\C(=O)C=Cc2ccccc21 |  | > 19.5 | 0.398 µM
20 | CC(NNC(=O)c1ccncc1)c1ccccc1 (centres undefined) |  | > 200 | 75.9 µM
21 | CCCCCCCCCCCCCCCCCCn1[se]c2ccccc2c1=O |  | > 3.24 | > 3.24 µM
22 | COC(=O)C(=O)C(C#N)c1cccc(O)c1C(=O)OC (centres undefined) |  | > 36.3 | > 36.3 µM
23 | CCOC(=O)/C=C/c1ccc(Br)cc1 |  | > 28.2 | > 28.2 µM

Row | Compound | outcome | EC50 [µM] | IC50
24 | COc1ccc(C2(OC)Oc3cc(OC)ccc3C(=O)C2(O)O)cc1 (centres undefined) |  | > 200 | 10.7 µM
25 | OC1COC(n2c3ccc(Br)cc3c3ccc4c5ccccc5[nH]c4c32)C(O)C1O (centres undefined) |  | > 112 | 
26 | CCOC(=O)C(=Cc1ccc(C(=O)OC)cc1)C(=O)OCC |  | > 85.1 | 12.6 µM
27 | O=S(=O)(O)C1CC2NC3C4CCCC(S(=O)(=O)O)C4C(Nc4ccccc4)CC3N(c3ccccc3)C2CC1Nc1ccccc1 (centres undefined) |  | 56.2 | > 100 µM
28 | COCCOC(=O)NCn1cc(-c2ccccc2)nn1 |  | > 200 | > 200 µM
29 | CC(=O)Nc1ccc2c(c1)nc1c3ccccc3ccn21 |  | > 200 | 29.5 µM
30 | Cc1cn(C2CC(N=[N+]=[N-])C(COC(=O)CCCCCCCCCCOc3ccccc3)O2)c(=O)[nH]c1=O (centres undefined) |  | 0.0468 | 110 µM
31 | Cc1[nH]n(-c2ncc(C#N)c(=O)[nH]2)c(=O)c1CCO |  | > 200 | > 200 µM
32 | NC1=NN(c2ccccc2)C(=O)C1C(=O)C(=O)Nc1ccc(Cl)cc1 (centres undefined) |  | > 347 | 251 µM
33 | Cc1ccc(S(=O)OC2C3CC4CC(C3)CC2C4)cc1 (centres undefined) | inactive |  | 
34 | COc1ccccc1/C=C(\NC(=O)c1ccccc1)c1nc2ccc(Cl)cc2[nH]1 |  | > 46.8 | > 46.8 µM
35 | O=C(CC(C(=O)c1ccsc1)c1cccs1)c1ccsc1 (centres undefined) |  | > 200 | 15.5 µM
36 | COc1cc2cc(c1Cl)N(C)C(=O)CC(OC(=O)C(C)N(C)C(=O)C(C)C)C1(C)OC1C(C)C1CC(O)(NC(=O)O1)C(OC)/C=C/C=C(C)C2OC (centres undefined) | inactive |  | 
37 | COc1ccc2c(c1)N=C(N)n1c(nc3ccccc31)S2 |  | > 200 | 6.61 µM
38 | COc1ccc2c(c1)CCN1C3=C(CCC3)C(=O)C[C@@H]21 | inactive |  | 
39 | CC(C)C(=O)Nc1nc2c(ncn2C2OC(CO)C(O)C2O)c(=O)[nH]1 (centres undefined) |  | > 708 | 513 µM
40 | NNC(=O)CNC(=O)c1ccc(Cl)cc1Cl |  | > 27.5 | > 27.5 µM
41 | Cc1cc2c(C(C)C)c(O)c(O)c(C=Nc3ccc4ccccc4c3)c2c(O)c1-c1c(C)cc2c(C(C)C)c(O)c(O)c(C=Nc3ccc4ccccc4c3)c2c1O |  | 10.7 | 22.9 µM
42 | O=C(O)c1ccc(CS(=O)(=O)c2ccccc2C(=O)O)cc1 |  | > 776 | > 776 µM
43 | Cc1cn(C2COC(CO)C2CO)c(=O)[nH]c1=O (centres undefined) |  | 44.7 | > 200 µM
44 | Cn1c(=O)cc(CNc2ccc(-c3ccccc3)cc2)c2ccccc21 |  | > 200 | 75.9 µM
45 | Fc1ccc(C=NC23CC4CC(CC(C4)C2)C3)cc1 |  | > 28.2 | > 28.2 µM
46 | COc1cc(N)c2c(c1)SCCC(=O)N2 |  | > 200 | > 200 µM

Row | Compound | outcome | EC50 [µM] | IC50
47 | Clc1ccc2c(NCCCCCCNc3ccnc4cc(Cl)ccc34)ccnc2c1 |  | > 14.1 | 2.4 µM
48 | CC(=O)OCC1OC(n2c(-c3ccc(C)cc3)cc(-c3ccccc3)c(C#N)c2=S)C(OC(C)=O)C(OC(C)=O)C1OC(C)=O (centres undefined) |  | > 200 | 67.6 µM
49 | CC(=O)Nc1ccc(-c2nnc(SCC(=O)Nc3ccccc3C)o2)cc1 |  | > 67.6 | 61.7 µM
50 | CNNC(=NS(=O)(=O)c1cc(C#N)c(NNC)cc1S)NNC | inactive |  | 
51 | COc1ccc(C(=O)c2ccc(OC)c(S(=O)(=O)n3ccnc3)c2)cc1S(=O)(=O)n1ccnc1 |  | > 35.5 | 32.4 µM
52 | CC(C)=CCC[C@@H](C)C1=C(O)C(N)=C(C)C(=O)C1=O |  | > 200 | 12 µM
53 | CC1(C)CC(=O)c2c(ccc(C(=O)C[C@@H](N)CO)c2N)O1 | inactive |  | 
54 | CC1=Nn2c(nnc2-c2ccc(Cl)cc2)NC(C)(C)C1 |  | > 61.7 | > 61.7 µM
55 | O=C(O)C1=CN=C(C(=O)O)NN1 |  | > 1150 | 617 µM
56 | Cc1ccc(C(=O)/C=C/c2ccc(N(C)C)cc2)cc1 |  | > 7.59 | > 7.59 µM
57 | CC1CSc2nc3[nH]c(=S)[nH]c3c(=O)n2C1 (centres undefined) |  | > 200 | > 200 µM
58 | NC(=S)N/N=C1\CCCC1C(O)(C(F)(F)Cl)C(F)(F)Cl (centres undefined) |  | > 200 | 38.9 µM
59 | Oc1ccc(C(=C(Br)c2ccccc2)c2ccc(O)cc2)cc1 |  | > 200 | 3.98 µM
60 | COC1(CC2(OC)C=CC(=O)O2)C=CC(=O)O1 (centres undefined) |  | > 105 | 55 µM
61 | O=C(CCc1ccc(O)c(O)c1)OCCc1ccccc1 |  | > 200 | 6.61 µM
62 | O=S(=O)(c1ccccc1)c1ccccn1 |  | 75.9 | 407 µM
63 | O=C(O)C(NCc1ccccc1)C(NCc1ccccc1)C(=O)O (centres undefined) |  | > 200 | > 200 µM
64 | CC(C)OP(=S)(NC(=S)c1ccccc1)OC(C)C |  | > 741 | 178 µM
65 | Nc1nc(NCC2(CO)CCC2)cc(=O)[nH]1 |  | > 200 | > 200 µM
66 | CCP(=O)(CC)C(Cl)(Cl)C(O)C(C)(C)C (centres undefined) |  | > 200 | > 200 µM
67 | CC(=O)Oc1cc(C)c(OC(C)=O)c2c1[C@H]1CC[C@]3(C)[C@@H](OC(C)=O)CC[C@H]3[C@@H]1CC2 |  | > 200 | 16.6 µM
68 | CCOC(=O)c1c(NS(=O)(=O)c2ccc(C)cc2)sc(C)c1-c1ccccc1 |  | > 200 | 21.9 µM
69 | CCCCNC(=S)Nc1nc(C(=O)NNC(=S)NCC)cs1 |  | > 200 | > 200 µM

Row | Compound | outcome | EC50 [µM] | IC50
70 | CC1(C)CC(=O)C2=C(C1)NC(SSC1=C(C#N)C(c3ccc(Br)cc3)C3=C(CC(C)(C)CC3=O)N1)=C(C#N)C2c1ccc(Br)cc1 (centres undefined) |  | 36.3 | 52.5 µM
71 | CC1=NN(c2cccc(S(=O)(=O)O)c2)C(=O)C1N=Nc1cc(Cl)cc(S(=O)(=O)O)c1O.O.[Cr] (centres undefined) |  | 89.1 | > 100 µM
72 | CCCCCCCCN(CCCCCCCC)/N=C/c1c2c(O)c3c(O)c(C)c4c(c3c1O)C(=O)C(C)(O/C=C/C(OC)C(C)C(OC(C)=O)C(C)C(O)C(C)C(O)C(C)/C=C/C=C(C)C(=O)N2)O4 (centres undefined) | inactive |  | 
73 | CN(C)c1nc(NN)c2c(-c3ccccc3)c(-c3ccccc3)oc2n1 |  | > 100 | > 100 µM
74 | Cc1ccc(C)n1-n1c(Cc2ccc(Cl)cc2)n[nH]c1=O |  | > 200 | 50.1 µM
75 | C=C=C(CC1CCCCC1=O)S(=O)(=O)c1ccccc1 (centres undefined) |  | > 200 | 6.46 µM
76 | CN1c2ccccc2C2=C(C(=O)CCS2)S1(=O)=O |  | > 35.5 | > 35.5 µM
77 | COC1OC(CO)C(O)C(OC(C)=O)C1NC(=O)N(CCCl)N=O (centres undefined) |  | > 676 | 417 µM
78 | CN(C)CCNC1c2ccccc2CCc2ccccc21 | inactive |  | 
79 | CN(C)CCN1C(=O)c2c(c3cccn3c3c2cnn3-c2ccccc2)C1=O |  | > 200 | > 200 µM
80 | CC(C)(C)OC(=O)N1CC(O)O[C@H](c2ccccc2)[C@@H]1c1ccccc1 (some centres undefined) |  | > 200 | 32.4 µM
81 | Cn1c(=O)nc2n(CCO)ccnc-2c1=O |  | > 100 | > 100 µM
82 | CC1=CC(=O)C2(C)CC[C@]3(O)CCCC123 (some centres undefined) | inactive |  | 
83 | Cc1nc(C)c(N2CCN(C(=O)O)CC2)c(=O)[nH]1 |  | > 200 | > 200 µM
84 | O=C(/C=C/c1cccc([N+](=O)[O-])c1)c1ccccc1 |  | > 20.4 | 11.5 µM
85 | CC(C)/C(Cl)=N/OC(=O)Nc1ccc(F)c(Cl)c1 |  | > 20 | 3.31 µM
86 | C/C(CC(=O)Nc1ccc(C)cc1C)=N/N=C(N)N |  | > 191 | > 191 µM
87 | CCOC(=O)[C@H]1Nc2c(cccc2[N+](=O)[O-])C2c3ccccc3CC21 (some centres undefined) |  | > 15.5 | > 15.5 µM
88 | C=CCOC(=O)Cn1ccc(=O)[nH]c1=O |  | > 200 | > 200 µM
89 | Oc1ccc(CCc2nc3ccccc3[nH]2)cc1 |  | > 200 | 42.7 µM
90 | C[C@H]1[C@H](NC(=O)/C(=N\OC(C)(C)C(=O)O)c2csc(N)n2)C(=O)N1S(=O)(=O)O |  | > 575 | > 575 µM
